Measured values taken from BindingDB's records for doi:10.7270/Q21R6P59 (German University In Cairo, 2011).

Target: cGMP-specific 3',5'-cyclic phosphodiesterase (Homo sapiens, UniProt O76074)
Assay: Phosphodiesterase Inhibition Assay
Description: PDE activity was measured using a modification of the IMAP fluorescence polarization phosphodiesterase assay from Molecular Devices. The assay was modified to use tetramethylrhodamine (TAMRA-) cGMP as substrate. PDE hydrolysis of the fluorescent labeled substrate allows it to bind the IMAP binding reagent, which results in increased FP.

SMILES	IC50 [nM]
CCn1c(O)c2n(c1=O)[C@@H](c1ccc(OC)cc1OC)c1[nH]c3ccccc3c1C2 [PDE5 Inhibitor, 6]	720
COc1ccc([C@H]2c3[nH]c4ccccc4c3Cc3c(O)n(C(C)(C)C)c(=O)n32)c(OC)c1 [PDE5 Inhibitor, 9]	2400
COC(=O)[C@@H]1Cc2c([nH]c3ccccc23)[C@H](c2ccc(OC)cc2OC)N1 [PDE5 Inhibitor, 4]	6400
COc1ccc([C@@H]2c3[nH]c4ccccc4c3Cc3c(O)n(C(C)(C)C)c(=O)n32)c(OC)c1 [PDE5 Inhibitor, 12]	550
CCn1c(O)c2n(c1=O)[C@H](c1ccc(OC)cc1OC)c1[nH]c3ccccc3c1C2 [PDE5 Inhibitor, 8]	360
C=CCn1c(O)c2n(c1=S)[C@H](c1ccc(OC)cc1OC)c1[nH]c3ccccc3c1C2 [PDE5 Inhibitor, 19]	560
